Data taken from US7124068B2, “Crystal structure of a deacetylase and inhibitors thereof” (Sloan-Kettering Institute for Cancer Research, priority 1999, dated 2006).

Columns and labels:
HDLP = assay: Histone deacetylase assay with [3H] acetyl-labeled histone substrate; format: biochemical, Aquifex aeolicus; conditions: in vitro
PLZF-RARα APL cells = conditions: cited from earlier work
mammary tumors = conditions: rats; cited from earlier work
lung tumors = conditions: mice; cited from earlier work

inhibition of HDLP histone deacetylase activity (HDLP)	Molecule	responsiveness to retinoic acid-induced differentiation (PLZF-RARα APL cells)	preventing the formation of mammary tumors (mammary tumors)	preventing the formation of lung tumors (lung tumors)
inhibited	CC(/C=C/C(=O)NO)=C\[C@@H](C)C(=O)c1ccc(N(C)C)cc1 [TSA, trichostatin A]	enhances their responsiveness	–	–
–	suberoylanilide hydroxamic acid [SAHA]	–	effective	effective
